Legend:
[1] = tested on: Gem129 (ex vivo spheroids of an HRD-positive high-grade serous ovarian cancer); assay: cell viability relative to untreated control (ex vivo patient spheroids); higher = less cytotoxic; conditions: 72 h
Experimental: (§1)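 Ex vivo 3D spheroid cultures from dissociated tumours of HGSOC patients (DET3CT platform) were treated for 72 h with dose matrices of carboplatin combined with birinapant or vorinostat (nM). Live (TMRM) and dead (POPO-1) cells were imaged and viability was expressed as % of untreated control.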

[2] = tested on: Gem119 (ex vivo spheroids of an HRD-positive high-grade serous ovarian cancer); assay: as above; conditions: 72 h
Experimental: as §1

O=C(O)C1(C(=O)O)CCC1.[NH2-].[NH2-].[Pt+2] [Carboplatin] + CC[C@H](NC(=O)[C@H](C)NC)C(=O)N1C[C@@H](O)C[C@H]1Cc1c(-c2[nH]c3cc(F)ccc3c2C[C@@H]2C[C@H](O)CN2C(=O)[C@H](CC)NC(=O)[C@H](C)NC)[nH]c2cc(F)ccc12 [Birinapant]
cell viability [%]
Conditions | partner drug concentration 0 nM | partner drug concentration 0.1 nM | partner drug concentration 1 nM | partner drug concentration 10 nM | partner drug concentration 100 nM | partner drug concentration 1000 nM
[1], carboplatin concentration 10 nM | – | 105 | 82.3 | 101 | 87.1 | 76.2
[1], carboplatin concentration 100 nM | – | 94.9 | 97.3 | 96 | 89.5 | 96.1
[1], carboplatin concentration 1000 nM | – | 96.4 | 100 | 92.5 | 86.2 | 73.2
[1], carboplatin concentration 10000 nM | 80.4 | 86.7 | 95.8 | 86.7 | 90.5 | 67.4
[1], carboplatin concentration 100000 nM | 57.5 | 57.3 | 31.2 | 29.8 | 27.8 | 19.6
[2], carboplatin concentration 10 nM | – | 83.3 | 107 | 102 | 90.8 | 67.6
[2], carboplatin concentration 100 nM | – | 83.6 | 112 | 74.4 | 90.8 | 66.8
[2], carboplatin concentration 1000 nM | – | 111 | 107 | 100 | 117 | 86
[2], carboplatin concentration 10000 nM | 112 | 96.4 | 72.9 | 116 | 110 | 81.3
[2], carboplatin concentration 100000 nM | 75.9 | 65.3 | 86.1 | 54.4 | 69.5 | 62.6

O=C(O)C1(C(=O)O)CCC1.[NH2-].[NH2-].[Pt+2] [Carboplatin] + O=C(CCCCCCC(=O)Nc1ccccc1)NO [Vorinostat]
cell viability [%]
Conditions | partner drug concentration 0 nM | partner drug concentration 1 nM | partner drug concentration 10 nM | partner drug concentration 100 nM | partner drug concentration 1000 nM | partner drug concentration 10000 nM
[1], carboplatin concentration 10 nM | 95.8 | 104 | 37.5 | 107 | 87.6 | 80.2
[1], carboplatin concentration 100 nM | 82.8 | 104 | 102 | 97.6 | 91.9 | 77.7
[1], carboplatin concentration 1000 nM | 86 | 109 | 108 | 98.1 | 81.2 | 77.3
[1], carboplatin concentration 10000 nM | 80.4 | 97.8 | 90.4 | 90.4 | 87.5 | 59.6
[1], carboplatin concentration 100000 nM | 57.5 | 35.8 | 41.7 | 33.9 | 25.8 | 3.4
[2], carboplatin concentration 10 nM | 102 | 90 | 102 | 93.8 | 93 | 26.9
[2], carboplatin concentration 100 nM | 124 | 105 | 103 | 118 | 94.6 | 45.7
[2], carboplatin concentration 1000 nM | 99.4 | 110 | 92 | 110 | 92.7 | 30.3
[2], carboplatin concentration 10000 nM | 112 | 93.7 | 96.1 | 70.3 | 100 | 17.2
[2], carboplatin concentration 100000 nM | 75.9 | 50.1 | 81.2 | 44.7 | 58.9 | 9.6

Reference: the supplement of paper PMC12420376
